This is an account of results in ChEMBL document CHEMBL3352653, “Synthesis of pyrazolo[4,3-a]phenanthridines, a new scaffold for Pim kinase inhibition” (Bioorg Med Chem, 2014).

pIC50: −log10 of the molar value.

Experiment [1] concerns the target T1, Serine/threonine-protein kinase pim-3 (Homo sapiens, UniProt Q86V86). Put plainly: Inhibition of full-length human PIM3 using RSRHSSYPAGT as substrate assessed as residual kinase activity after 30 mins in presence of [gamma-33P]ATP.
Experiment [2] concerns the target Serine/threonine-protein kinase pim-2 (Homo sapiens) (UniProt Q9P1W9). Put plainly: Inhibition of full-length human PIM2 using RSRHSSYPAGT as substrate assessed as residual kinase activity at 10 uM after 30 mins in presence of [gamma-33P]ATP.
For experiment [3], the system named is LNCaP. The experiment is described as follows: Antiproliferative activity against human LNCAP cells at 10 uM after 72 hrs by MTS assay. The experiment is classed as functional. A general note: Tetrazolium assays rely on reduction of a dye to a coloured formazan, in cell work by metabolically active cells.
Experiment [4] has as its target T2, Serine/threonine-protein kinase pim-1 (Homo sapiens, UniProt P11309). The experiment is described as follows: Inhibition of full-length human PIM1 using RSRHSSYPAGT as substrate assessed as residual kinase activity at 1 uM after 30 mins in presence of [gamma-33P]ATP.
Target sequence in this assay (P11309 whole entry, looked up): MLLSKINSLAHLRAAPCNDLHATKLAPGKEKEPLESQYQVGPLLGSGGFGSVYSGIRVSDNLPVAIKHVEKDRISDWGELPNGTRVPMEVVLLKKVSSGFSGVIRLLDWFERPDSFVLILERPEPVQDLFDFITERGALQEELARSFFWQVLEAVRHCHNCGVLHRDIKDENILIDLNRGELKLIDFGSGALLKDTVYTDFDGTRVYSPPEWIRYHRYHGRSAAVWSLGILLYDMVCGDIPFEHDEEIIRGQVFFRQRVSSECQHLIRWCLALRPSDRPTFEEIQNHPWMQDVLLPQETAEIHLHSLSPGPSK
Experiment [5] concerns the target T1, Serine/threonine-protein kinase pim-3. Put plainly: Inhibition of full-length human PIM3 using RSRHSSYPAGT as substrate assessed as residual kinase activity at 10 uM after 30 mins in presence of [gamma-33P]ATP.
The target of experiment [6] is Serine/threonine-protein kinase pim-2 (Homo sapiens) (UniProt Q9P1W9). The experiment is described as follows: Inhibition of full-length human PIM2 using RSRHSSYPAGT as substrate assessed as residual kinase activity at 1 uM after 30 mins in presence of [gamma-33P]ATP.
Sequence of Serine/threonine-protein kinase pim-2 (Homo sapiens) (Q9P1W9 whole entry, looked up): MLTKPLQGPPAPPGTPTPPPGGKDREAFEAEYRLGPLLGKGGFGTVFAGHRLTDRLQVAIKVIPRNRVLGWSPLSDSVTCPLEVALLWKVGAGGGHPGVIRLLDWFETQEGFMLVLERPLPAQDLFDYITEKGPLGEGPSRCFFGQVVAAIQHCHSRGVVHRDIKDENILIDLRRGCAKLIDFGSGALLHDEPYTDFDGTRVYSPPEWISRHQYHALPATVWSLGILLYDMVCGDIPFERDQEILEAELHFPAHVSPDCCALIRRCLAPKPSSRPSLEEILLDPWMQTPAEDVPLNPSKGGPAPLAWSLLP
Experiment [7] addresses T1, Serine/threonine-protein kinase pim-3. The experiment is described as follows: Inhibition of full-length human PIM3 using RSRHSSYPAGT as substrate assessed as residual kinase activity at 1 uM after 30 mins in presence of [gamma-33P]ATP.
The nature of experiment [8]: Antiproliferative activity against human PC3 cells at 10 uM after 72 hrs by MTS assay. It is filed as functional. As to conditions: PC-3, 72 h.
Experiment [9] addresses T2, Serine/threonine-protein kinase pim-1. Put plainly: Inhibition of full-length human PIM1 using RSRHSSYPAGT as substrate assessed as residual kinase activity at 10 uM after 30 mins in presence of [gamma-33P]ATP.
Target sequence in this assay (P11309 whole entry, looked up): as the sequence (P11309 whole entry, looked up) above
The target is the same in experiment [10]. Put plainly: Inhibition of full-length human PIM1 using RSRHSSYPAGT as substrate assessed as residual kinase activity after 30 mins in presence of [gamma-33P]ATP.
Target sequence in this assay (P11309 whole entry): as the sequence (P11309 whole entry, looked up) above
Experiment [11] in a line: Antiproliferative activity against human PC3 cells after 72 hrs by MTS assay. The experiment is classed as functional, cell-based. As to conditions: PC-3, 72 h.

In general, pIC50 refers to −log10 of the IC50, conventionally taken in molar units. For orientation: inhibition means the change of the read-out against control, counted positive when it falls. A higher inhibition goes with a response far below the control.

As for `O=[N+]([O-])c1cc2[nH]ncc2c2c1ncc1c(F)cccc12`, the pIC50 in experiment [1] was 6.77. Moreover, the Activity in experiment [2] is 66%; in experiment [4], 46%; in experiment [5] it was 6.7%; in experiment [6] it was 84%; in [7], 14%; in [9], 19%. The inhibition at 10 µM came to 46% in [3] and 37% in [8].
As for `O=[N+]([O-])c1cc2[nH]ncc2c2c1ncc1ccccc12`, the pIC50 is 7.70 in [1], 7.15 in experiment [10] and 5.61 in [11]. For the same compound, the Activity in experiment [2] was determined as 8.1%; in [4] it was 16%; in [5], 0.9%; in experiment [6], 46%; in experiment [7], 6%; in experiment [9], 2.2%. Moreover, the figures for the inhibition at 10 µM in experiment [3] and in experiment [8] were 54% and 68%, respectively.
In the case of `O=[N+]([O-])c1cc2[nH]ncc2c2c1ncc1cc3c(cc12)OCO3`, the pIC50 is 6.40 in experiment [1] and 5.30 in experiment [11]. Moreover, the Activity in experiment [2] came out at 54%; in experiment [4], 53%; in experiment [5], 7%; in experiment [6], 92%; in [7], 18.9%; in experiment [9], 15.8%. Moreover, the values for the inhibition at 10 µM in experiment [3] and in experiment [8] were 54% and 60%, respectively.
Consider `Nc1cc2[nH]ncc2c2c1ncc1ccccc12`, for which the Activity in [2] came out at 43%; in [4], 55%; in experiment [5], 24%; in experiment [6], 86%; in [7], 55%; in [9] it was 17%.
Regarding `COc1ccc2c(cnc3c(N)cc4[nH]ncc4c32)c1`, the Activity stood at 84% in [2]; 96% in experiment [4]; 16.5% in experiment [5]; 100% in experiment [6]; 60% in [7]; 35% in experiment [9].
With `O=[N+]([O-])c1cc2[nH]ncc2c2c1ncc1ccc(Cl)cc12`, the pIC50 is 6.70 in experiment [1] and 5.52 in [11]. The Activity came out at 47% in experiment [2]; 28% in experiment [4]; 4% in experiment [5]; 83% in experiment [6]; 8.9% in experiment [7]; 9% in [9]. The inhibition at 10 µM in [3] is 31%; in [8], 75%.
Take `Nc1cc2[nH]ncc2c2c1ncc1c(F)cccc12`: the Activity was determined as 76% in [2]; 90% in experiment [4]; 7.9% in [5]; 110% in experiment [6]; 42% in [7]; 16% in experiment [9].
On to `COc1ccc2c(cnc3c([N+](=O)[O-])cc4[nH]ncc4c32)c1`, for which the pIC50 was 6.85 in experiment [1], 6.92 in [10] and 5.96 in experiment [11]. Moreover, the Activity in [2] amounted to 55%; in experiment [4] it was 20%; in experiment [5] it was 5.5%; in experiment [6] it was 64%; in experiment [7], 8%; in [9] it was 15%. Besides, the inhibition at 10 µM is 40% in experiment [3] and 73% in [8].
For `c1ccc2c(c1)cnc1ccc3[nH]ncc3c12`, the Activity in experiment [2] amounted to 38%; in experiment [4], 44%; in [5] it was 47%; in [6], 84.6%; in experiment [7], 98%; in [9], 11%.
Regarding `Nc1cc2[nH]ncc2c2c1ncc1ccc(Cl)cc12`, the Activity in experiment [2] was determined as 57%; in experiment [4], 88%; in experiment [5], 10.5%; in experiment [6], 96%; in [7], 50%; in experiment [9] it was 18%.
